Values after ≈ are worked out from the molar mass of the structure shown. Read-outs that look alike come from different tables or passages of the source.
Tests used:
[1] = Lipophilicity determination using RP-HPLC (capacity factor, log k); assay type: physicochemical; conditions: C18, MeOH 55%/H2O 45%
Excerpt: Reversed phase high performance liquid chromatography (RP-HPLC) methods have become popular and are widely used for lipophilicity measurements. The general procedure is the measurement of the directly accessible retention time under isocratic conditions using varying amounts of methanol as an organic modifier in the mobile phase using RP columns and calculating the logarithm of the capacity factors (log k). Log k is the logarithm of the capacity factors in chromatographic approaches that is related to the partitioning of a compound between a mobile and a (pseudo-)stationary phase. Log k is used as the lipophilicity index converted to log P scale.
A Waters Alliance 2695 XE HPLC separation module and a Waters Photodiode Array Detector 2996 (Waters Corp., Milford, MA, USA) were used. A Symmetry® C18 5 μm, 4.6 × 250 mm, Part No. WAT054275 (Waters Corp.) chromatographic column was used. The HPLC separation process was monitored using Empower™ 2 Chromatography Data Software, Waters 2009 (Waters Corp.). A mixture of MeOH p.a. (55%) and H2O-HPLC-Mili-Q Grade (45%) was used as a mobile phase. The total flow of the column was 0.9 mL/min, injection volume 30 μL, column temperature 30 °C and sample temperature 10 °C. A detection wavelength of 210 nm was chosen. A KI methanolic solution was used for the determination of dead time (tD). Retention times (tR) were measured in minutes. The capacity factors k were calculated using the Empower™ 2 Chromatography Data Software according to the formula k = (tR − tD)/tD, where tR is the retention time of the solute, whereas tD denotes the dead time obtained using an unretained analyte. Log k, calculated from the capacity factor k, is used as the lipophilicity index converted to log P scale.

[2] = test system: photosynthetic electron transport (PET) in spinach chloroplasts; experiment: Inhibition of photosynthetic electron transport (PET) in spinach chloroplasts; assay type: biochemical, Spinacia oleracea L.; conditions: DCPIP photoreduction
Description: Chloroplasts were prepared from spinach (Spinacia oleracea L.) according to Masarovicova and Kralova. The inhibition of the photosynthetic electron transport (PET) in spinach chloroplasts was determined spectrophotometrically (Genesys 6, Thermo Fisher Scientific, Waltham, MA, USA) using an artificial electron acceptor 2,6-dichlorophenol-indophenol (DCIPP) according to Kralova et al. and the rate of photosynthetic electron transport was monitored as a photoreduction of DCPIP. The measurements were carried out in a phosphate buffer (0.02 mol/L, pH 7.2) containing sucrose (0.4 mol/L), MgCl2 (0.005 mol/L) and NaCl (0.015 mol/L). The chlorophyll content was 30 mg/L in these experiments and the samples were irradiated (~100 W/m^2 with 10 cm distance) with a halogen lamp (250 W) using a 4 cm water filter to prevent warming of the samples (suspension temperature 22 °C). The compounds studied were dissolved in DMSO due to their limited water solubility. […] The inhibitory efficiency of the compounds studied was expressed by IC50 values, i.e., by the molar concentration of the compounds that caused a 50% decrease in the oxygen evolution rate relative to the untreated control.

[3] = test system: Candida albicans ATCC 44859; experiment: In vitro antifungal susceptibility, broth microdilution; assay type: cell-based; conditions: read-out: MIC (IC80) CA
Candida tropicalis 156 = experiment: as above; assay type: cell-based; conditions: read-out: MIC (IC80) CT
Candida krusei ATCC 6258 = experiment: as above; assay type: cell-based; conditions: Pichia kudriavzevii, read-out: MIC (IC80) CK
Candida glabrata 20/I = experiment: as above; assay type: cell-based; conditions: Nakaseomyces glabratus, read-out: MIC (IC80) CG
[4] = test system: Trichosporon beigelii 1188; experiment: as above; assay type: cell-based; conditions: read-out: MIC (IC80) TB
Excerpt: The broth microdilution test was used for the assessment of the in vitro antifungal activity of the synthesized compounds against Candida albicans ATCC 44859 (CA), Candida tropicalis 156 (CT), Candida krusei ATCC 6258 (CK), Candida glabrata 20/I (CG), Trichosporon beigelii 1188 (TB), Aspergillus fumigatus 231 (AF), Absidia corymbifera 272 (AC), and Trichophyton mentagrophytes 445 (TM). Fluconazole (FLU) was used as the standard since it is a clinically used antimycotic drug. The procedure was performed using a twofold dilution of the compounds in RPMI 1640 (Sevapharma a.s., Prague, Czech Republic) buffered to pH 7.0 with […] of 3-morpholino-propane-1-sulfonic acid (MOPS, Sigma, Prague, Czech Republic). The final concentrations of the compounds ranged from 500 to 0.975 μmol/L. Drug-free controls were included. The determination of minimum inhibitory concentration (MIC) was performed according to the Clinical and Laboratory Standards Institute (CLSI, formerly NCCLS) reference protocol M27-A2 for yeasts (IC80 value) and M38-A for moulds (IC50 value). IC80 and IC50 were defined as an 80% resp. 50% or greater reduction in growth in comparison with the control. The values of MICs were determined after 24 and 48 h of static incubation at 35 °C. The final MICs for T. mentagrophytes, were determined after 72 and 120 h of incubation.

[5] = test system: Aspergillus fumigatus 231; experiment: as above; assay type: cell-based; conditions: read-out: MIC (IC50) AF
Absidia corymbifera 272 = experiment: as above; assay type: cell-based; conditions: read-out: MIC (IC50) AC
[6] = test system: Trichophyton mentagrophytes 445; experiment: as above; assay type: cell-based; conditions: read-out: MIC (IC50) TM
[7] = test system: HCT-116 human colon cancer cells (p53 wild type); design: method as in PMID 22858101; conditions: footnote 3: anticancer activity described elsewhere ref [34],[44]; cited from earlier work
[8] = Trichosporon beigelii, 1188, 24 h
[9] = Trichosporon beigelii, 1188, 48 h
[10] = Aspergillus fumigatus, 231, 24 h
[11] = Aspergillus fumigatus, 231, 48 h
[12] = Lichtheimia corymbifera, 272, 24 h
[13] = Lichtheimia corymbifera, 272, 48 h
[14] = Trichophyton mentagrophytes, 445, 72 h
[15] = Trichophyton mentagrophytes, 445, 120 h

Row | Structure (SMILES) | log k [1] | IC50 [2] [µM] | MIC ([3]; ATCC44859, 24 h) [µM] | MIC ([3]; ATCC44859, 48 h) [µM] | MIC (Candida tropicalis 156; Candida tropicalis, 156, 24 h) [µM] | MIC (Candida tropicalis 156; Candida tropicalis, 156, 48 h) [µM] | MIC (Candida krusei ATCC 6258; ATCC6258, 24 h) [µM] | MIC (Candida krusei ATCC 6258; ATCC6258, 48 h) [µM] | MIC (Candida glabrata 20/I; 24 h) [µM] | MIC (Candida glabrata 20/I; 48 h) [µM] | MIC [4, 8] [µM] | MIC [4, 9] [µM] | IC50 [5, 10] [µM] | IC50 [5, 11] [µM] | IC50 (Absidia corymbifera 272; [12]) [µM] | IC50 (Absidia corymbifera 272; [13]) [µM] | IC50 [6, 14] [µM] | IC50 [6, 15] [µM] | IC50 [7] [µM] | other results
1 | CN(C)C(=S)NN/C=C/c1ccc2ccccc2n1 [Compound 4b, (E)-2-(Quinolin-2-ylvinyl)-N,N-dimethylhydrazinecarbothioamide] | 0.6184 | 1370 | 1.95 (≈ 0.531 µg/mL) | 1.95 (≈ 0.531 µg/mL) | 1.95 (≈ 0.531 µg/mL) | 7.81 (≈ 2.13 µg/mL) | 3.9 (≈ 1.06 µg/mL) | 3.9 (≈ 1.06 µg/mL) | 1.95 (≈ 0.531 µg/mL) | 1.95 (≈ 0.531 µg/mL) | 1.95 (≈ 0.531 µg/mL) | 1.95 (≈ 0.531 µg/mL) | 3.9 | 3.9 | 3.9 | 3.9 | 3.9 | 3.9 | 4.86 ± 1.48 | 
2 | CNC(=S)NN=Cc1ccc2cccc(O)c2n1 [Compound 4e] | 0.6236 | 302 |  |  |  |  |  |  |  |  |  |  |  |  |  |  |  |  | 1.71 ± 0.34 | MIC ([3]; ATCC44859, 24 h and 48 h, only one value presented (inactive)): > 125 µM; MIC (Candida tropicalis 156; Candida tropicalis, 156, 24 h and 48 h, only one value presented (inactive)): > 125 µM; MIC (Candida krusei ATCC 6258; ATCC6258, 24 h and 48 h, only one value presented (inactive)): > 125 µM; MIC (Candida glabrata 20/I; 24 h and 48 h, only one value presented (inactive)): > 125 µM; MIC ([4]; Trichosporon beigelii, 1188, 24 h and 48 h, only one value presented (inactive)): > 125 µM; IC50 ([5]; Aspergillus fumigatus, 231, 24 h and 48 h, only one value presented (inactive)): > 125 µM; IC50 (Absidia corymbifera 272; Lichtheimia corymbifera, 272, 24 h and 48 h, only one value presented (inactive)): > 125 µM; IC50 ([6]; Trichophyton mentagrophytes, 445, 72 h and 120 h, only one value presented (inactive)): > 125 µM
3 | CNC(=S)NN=Cc1c(O)ccc2cccnc12 [Compound 4i] | 0.6193 |  | > 500 | > 500 | > 500 | > 500 | > 500 | > 500 | > 500 | > 500 | > 500 | > 500 | > 500 | > 500 | > 500 | > 500 | > 500 | > 500 | > 25 | 
4 | CN(C)C(=S)NN=Cc1c(O)ccc2cccnc12 [Compound 4j] | 0.5831 | 520 | 125 (≈ 34.3 µg/mL) | > 250 | > 250 | > 250 | > 250 | > 250 | 125 (≈ 34.3 µg/mL) | 125 (≈ 34.3 µg/mL) | 125 (≈ 34.3 µg/mL) | > 250 | > 250 | > 250 | > 250 | > 250 | 125 | 125 | 20.8 ± 5.34 | 
5 | CCNC(=S)NN=Cc1c(O)ccc2cccnc12 [Compound 4k] | 0.6539 |  | > 500 | > 500 | > 500 | > 500 | > 500 | > 500 | 62.5 (≈ 17.1 µg/mL) | 500 (≈ 137 µg/mL) | > 500 | > 500 | > 500 | > 500 | > 500 | > 500 | 62.5 | 62.5 | > 25 | 
6 | Oc1ccc2cccnc2c1C=NNC(=S)Nc1ccccc1 [Compound 4l] | 0.6748 |  | 31.2 (≈ 10.1 µg/mL) | 62.5 (≈ 20.1 µg/mL) | 125 (≈ 40.3 µg/mL) | 125 (≈ 40.3 µg/mL) | 31.2 (≈ 10.1 µg/mL) | 125 (≈ 40.3 µg/mL) | 15.6 (≈ 5.04 µg/mL) | 31.2 (≈ 10.1 µg/mL) | 15.6 (≈ 5.04 µg/mL) | 125 (≈ 40.3 µg/mL) | 125 | 125 | 15.6 | 62.5 | 15.6 | 15.6 | 16.3 ± 1.69 | 
